# Data: patent publication US20150045445A1, “3-KETO-N-PROPARGYL-1-AMINOINDAN” (TEVA PHARMACEUTICAL INDUSTRIES, LTD., priority 2009, published 2015)
# Assays:
# [1] = Genotoxicity of the by-product; settings: by-product of rasagiline drug substance production; no test described
# [2] = AZILECT Product Label, May 2006; cited from earlier work
structure (smiles),measurement,setting,value
C#CCNC1CC(=O)c2ccccc21 (centres unmarked) [3-keto-N-propargyl-1-aminoindan],genotoxicity,[1],not genotoxic
"C#CCN[C@@H]1CCc2ccccc21 [rasagiline, R(+)-N-propargyl-1-aminoindan]",absolute bioavailability,[2],about 36%
